Test results taken from patent EP4745138A1, “THIO-GLUTARIMIDO ISOINDOLINONE DERIVATIVE, BIFUNCTIONAL PROTEIN DEGRADER CONTAINING SAME, AND USES THEREOF” (Gluetacs Therapeutics (Shanghai) Co., Ltd., priority 2023, dated 2025).
Where two headings read alike, the source gives them in different places.

Tests used:
ALK = biological target: T1, ALK (Homo sapiens, UniProt Q96SW2+Q9HC35+Q9UM73); experiment: Western blot, target protein degradation in H2228 Cell; assay type: cell-based; settings: substrate protein remaining %, treated at 500 nM and 50 nM, 24 hours
T1 construct: endogenous in cells; host or cells: H2228
Method: (§1) Conventional Western blot assay was performed to evaluate the effects of the compounds of the present disclosure on the expression of target proteins in cells.
(§2) (1) Cell Seeding and Protein Harvesting: The selected cells were processed according to the cell seeding procedure and protein harvesting procedure in Table II-2. Table II-2 Cell Seeding and Protein Harvesting Procedures
(§3) (2) To the collected supernatant, 5X SDS sample loading buffer was added, followed by denaturation at 95°C for 5 minutes. The denatured samples were then separated by SDS-PAGE electrophoresis on a polyacrylamide gel. Proteins were transferred to a nitrocellulose membrane (0.45 µm NC membrane), blocked with blocking buffer at room temperature for 1 hour, and subjected to antibody incubation and development procedures according to the antibody manufacturer's instructions (Cell Signaling Technology).
(§4) Half-Maximal Degradation Concentration value (the drug concentration required for degrading proteins by 50%, abbreviated as DC50) reads method: comparing the grayscale values of Western blot bands from drug-treated samples with those from blank DMSO-treated controls, and identifying the drug concentration range at which the grayscale value is half that of the DMSO-treated control bands.
(§5) DC50 values can be calculated using ImageJ software to measure grayscale values of Western blot bands from drug-treated samples. The concentration-response curve is fitted to estimate the drug concentration corresponding to half the grayscale value.
(§6) Target protein remaining (%) refers to the percentage of target protein remaining in cells after treatment with protein degrader compounds.
(§7) Calculation method for target protein remaining (%): Use ImageJ software to measure grayscale values of Western blot bands from drug (protein degrader)-treated samples. The grayscale value of drug-treated bands is divided by that of internal control protein bands, and the resulting quotient is normalized to obtain the relative percentage of remaining target protein after protein degrader treatment. Target protein degradation rate(%) = 1−target protein remaining(%). [formula]

MV-4-11 = experiment: Tumor cell proliferation inhibition (CellTiter-Meiluncell Luminescent Cell Viability Assay); assay type: cell-based; settings: Homo sapiens, 96 hours; for inhibition at 0.01 µM: MV4-11, 10 nM, read-out: Inhibition Rate at 10 nM (%); for inhibition at 0.5 µM: MV4-11, 500 nM, read-out: Inhibition Rate at 500 nM (%)
In short: (§8)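 Following overnight seeding, tumor cells received serial compound dilutions to final levels that included 10 nM and 500 nM. Viability was assessed by luminescence at the end of the specified exposure time. Cultures were kept at 37°C with 5% CO2.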

MM.1S = experiment: as above; assay type: cell-based; settings: Homo sapiens, MM1.S, MM.1S, 96 hours, Table I-2, ALK inhibitors; for inhibition at 0.01 µM: 10 nM, read-out: Inhibition Rate at 10 nM (%); for inhibition at 0.5 µM: 500 nM, read-out: Inhibition Rate at 500 nM (%)
In short: as §8

MCF-7 = experiment: as above; assay type: cell-based; settings: Homo sapiens, 96 hours, Table I-2, ALK inhibitors; for inhibition at 0.01 µM: MCF7, 10 nM, read-out: Inhibition Rate at 10 nM (%); for inhibition at 0.5 µM: MCF7, 500 nM, read-out: Inhibition Rate at 500 nM (%)
In short: as §8

[1] = biological target: T2, human Cereblon WT GST-tagged protein (Homo sapiens, UniProt Q96SW2); experiment: CRBN-binding affinity, HTRF (CEREBLON BINDING kit); settings: for inhibition at 0.5 µM: read-out: Inhibition Rate at 0.5 µM (%); for inhibition at 2 µM: read-out: Inhibition Rate at 2 µM (%)
T2 construct: purchased CISBIO 64BDCRBNPEH
In short: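 Readout is homogeneous time-resolved fluorescence, measuring displacement of a thalidomide-red tracer from GST-tagged Cereblon detected by a europium anti-GST antibody. Compounds were tested at final 2 µM and 0.5 µM after dilution in diluent #9 (1X).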

FAK = biological target: T3, FAK (Homo sapiens, UniProt Q05397); experiment: Western blot, target protein degradation in A549 Cell; assay type: cell-based; settings: substrate protein remaining %, treated at 500 nM and 50 nM, 24 hours
T3 construct: endogenous in cells; host or cells: A549
Method: as §1, §2, §3, §4, §5, §6, §7

SW620 = experiment: Tumor cell proliferation inhibition (CellTiter-Meiluncell Luminescent Cell Viability Assay); assay type: cell-based; settings: Homo sapiens, 96 hours, Table I-3, EGFR inhibitors
In short: as §8

H1975 = experiment: as above; assay type: cell-based; settings: Homo sapiens, 96 hours, Table I-3, EGFR inhibitors
In short: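 Cells were grown at 37°C under 5% CO2, seeded into 96-well plates, and dosed with compound on the next day. After a set treatment period, viability was read by luminescence with the CellTiter-Meiluncell reagent and IC50 values were derived. Final compound concentrations included 500 nM and 10 nM.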

RPMI-8226 = experiment: as above; assay type: cell-based; settings: Homo sapiens, 96 hours, Table I-3, EGFR inhibitors
In short: as §8

T3 sequence (Q05397 whole entry): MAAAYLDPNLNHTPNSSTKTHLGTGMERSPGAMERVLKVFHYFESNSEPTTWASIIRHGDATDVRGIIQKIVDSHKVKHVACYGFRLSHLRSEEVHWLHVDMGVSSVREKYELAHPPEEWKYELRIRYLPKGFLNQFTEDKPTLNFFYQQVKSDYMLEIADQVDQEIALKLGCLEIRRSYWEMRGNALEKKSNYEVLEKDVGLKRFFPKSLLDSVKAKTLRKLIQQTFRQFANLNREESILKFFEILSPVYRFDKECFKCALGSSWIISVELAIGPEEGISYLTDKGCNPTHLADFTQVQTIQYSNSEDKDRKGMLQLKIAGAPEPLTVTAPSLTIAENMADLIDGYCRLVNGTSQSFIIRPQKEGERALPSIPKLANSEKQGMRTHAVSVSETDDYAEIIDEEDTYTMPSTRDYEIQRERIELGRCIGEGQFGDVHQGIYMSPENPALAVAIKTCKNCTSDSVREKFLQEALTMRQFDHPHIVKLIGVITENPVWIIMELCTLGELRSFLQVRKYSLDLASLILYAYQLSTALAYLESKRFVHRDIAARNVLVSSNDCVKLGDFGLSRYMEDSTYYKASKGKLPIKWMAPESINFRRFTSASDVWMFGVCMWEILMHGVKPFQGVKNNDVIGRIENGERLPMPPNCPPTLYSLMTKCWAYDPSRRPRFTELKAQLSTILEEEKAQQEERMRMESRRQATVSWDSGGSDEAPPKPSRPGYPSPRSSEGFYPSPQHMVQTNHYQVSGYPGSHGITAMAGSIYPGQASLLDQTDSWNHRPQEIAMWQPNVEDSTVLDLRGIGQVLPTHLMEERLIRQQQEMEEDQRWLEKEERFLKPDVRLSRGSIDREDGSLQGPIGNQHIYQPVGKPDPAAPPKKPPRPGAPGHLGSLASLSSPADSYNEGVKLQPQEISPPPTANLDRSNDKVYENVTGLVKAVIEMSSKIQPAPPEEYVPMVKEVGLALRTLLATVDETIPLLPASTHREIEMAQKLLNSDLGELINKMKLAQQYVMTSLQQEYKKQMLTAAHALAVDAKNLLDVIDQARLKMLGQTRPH
T2 sequence (Q96SW2 whole entry): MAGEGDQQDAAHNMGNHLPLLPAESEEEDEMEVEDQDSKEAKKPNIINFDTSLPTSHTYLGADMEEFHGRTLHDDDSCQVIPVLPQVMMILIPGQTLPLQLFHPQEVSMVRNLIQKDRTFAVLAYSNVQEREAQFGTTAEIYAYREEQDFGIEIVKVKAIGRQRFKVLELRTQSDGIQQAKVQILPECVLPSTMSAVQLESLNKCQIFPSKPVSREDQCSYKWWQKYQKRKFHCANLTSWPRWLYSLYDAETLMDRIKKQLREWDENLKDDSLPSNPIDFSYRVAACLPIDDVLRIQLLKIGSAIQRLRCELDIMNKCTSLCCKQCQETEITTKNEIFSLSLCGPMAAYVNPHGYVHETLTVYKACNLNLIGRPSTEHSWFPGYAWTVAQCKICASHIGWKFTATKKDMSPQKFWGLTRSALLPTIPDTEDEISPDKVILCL
T1 sequence (Q9HC35+Q9UM73 fused): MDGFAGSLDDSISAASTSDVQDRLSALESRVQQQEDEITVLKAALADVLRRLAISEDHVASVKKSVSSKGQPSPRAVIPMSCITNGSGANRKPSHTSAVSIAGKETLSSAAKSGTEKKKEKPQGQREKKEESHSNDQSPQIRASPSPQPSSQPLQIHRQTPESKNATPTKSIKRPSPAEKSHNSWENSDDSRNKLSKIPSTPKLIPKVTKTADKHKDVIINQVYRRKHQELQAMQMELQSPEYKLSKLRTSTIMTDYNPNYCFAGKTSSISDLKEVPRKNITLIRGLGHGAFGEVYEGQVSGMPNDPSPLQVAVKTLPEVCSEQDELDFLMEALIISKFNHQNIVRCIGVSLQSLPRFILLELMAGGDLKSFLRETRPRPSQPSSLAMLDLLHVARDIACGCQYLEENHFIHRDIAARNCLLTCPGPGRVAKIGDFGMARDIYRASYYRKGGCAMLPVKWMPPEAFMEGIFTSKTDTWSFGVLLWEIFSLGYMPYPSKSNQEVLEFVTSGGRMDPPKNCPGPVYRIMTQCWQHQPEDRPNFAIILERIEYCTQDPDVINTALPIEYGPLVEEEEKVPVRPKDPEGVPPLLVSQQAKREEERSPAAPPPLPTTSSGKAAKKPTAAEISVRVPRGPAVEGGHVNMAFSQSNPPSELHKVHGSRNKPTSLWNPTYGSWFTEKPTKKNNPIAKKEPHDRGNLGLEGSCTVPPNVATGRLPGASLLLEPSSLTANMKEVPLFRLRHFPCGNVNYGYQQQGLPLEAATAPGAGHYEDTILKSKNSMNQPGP
T1 sequence (Q96SW2 whole entry): as the sequence (Q96SW2 whole entry) above
T1 sequence (Q16531 whole entry partner): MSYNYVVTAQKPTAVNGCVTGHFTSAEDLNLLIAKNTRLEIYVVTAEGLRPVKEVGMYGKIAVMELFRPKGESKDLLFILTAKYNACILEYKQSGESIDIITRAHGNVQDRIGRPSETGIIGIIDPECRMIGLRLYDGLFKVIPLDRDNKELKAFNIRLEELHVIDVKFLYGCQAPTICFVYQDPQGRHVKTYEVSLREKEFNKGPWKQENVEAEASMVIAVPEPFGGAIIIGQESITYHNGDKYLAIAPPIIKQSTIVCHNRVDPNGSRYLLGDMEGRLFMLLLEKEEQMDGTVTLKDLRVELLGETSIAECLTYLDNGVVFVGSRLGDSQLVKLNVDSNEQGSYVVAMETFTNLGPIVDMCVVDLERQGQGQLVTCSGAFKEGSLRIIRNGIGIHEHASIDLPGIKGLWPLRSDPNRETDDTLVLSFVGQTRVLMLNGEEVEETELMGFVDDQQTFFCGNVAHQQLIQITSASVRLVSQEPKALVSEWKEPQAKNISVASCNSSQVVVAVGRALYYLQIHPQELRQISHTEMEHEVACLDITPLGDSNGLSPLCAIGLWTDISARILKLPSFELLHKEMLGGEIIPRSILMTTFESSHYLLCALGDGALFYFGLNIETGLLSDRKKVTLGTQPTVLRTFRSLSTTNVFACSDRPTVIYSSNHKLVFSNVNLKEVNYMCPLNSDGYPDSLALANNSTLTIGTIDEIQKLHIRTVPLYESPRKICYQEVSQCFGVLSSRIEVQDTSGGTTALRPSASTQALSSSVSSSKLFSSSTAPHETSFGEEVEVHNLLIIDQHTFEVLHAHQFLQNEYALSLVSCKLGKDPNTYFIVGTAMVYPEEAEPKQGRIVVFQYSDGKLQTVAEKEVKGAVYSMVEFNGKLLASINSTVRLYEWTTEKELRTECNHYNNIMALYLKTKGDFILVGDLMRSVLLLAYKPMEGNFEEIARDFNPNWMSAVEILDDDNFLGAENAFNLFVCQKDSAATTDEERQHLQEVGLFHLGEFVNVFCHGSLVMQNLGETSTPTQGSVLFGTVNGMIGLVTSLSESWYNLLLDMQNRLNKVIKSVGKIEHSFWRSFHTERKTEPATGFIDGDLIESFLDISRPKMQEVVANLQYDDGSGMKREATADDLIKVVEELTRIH

In the case of Cc1cc(Nc2ncc(Cl)c(Nc3ccccc3S(=O)(=O)C(C)C)n2)c(OC(C)C)cc1C1CCN(Cc2cccc3c2CN(C2CCC(=O)NC2=O)C3=S)CC1 (stereo not shown) [GT-08676, 3-(4-((4-(4-((5-chloro-4-((2-(isopropylsulfonyl)pheny 1)amino)pyrimidin-2-yl)amino)-5-isopropoxy-2-methylphenyl)piperidin-1-yl)methyl)-1-thioxoisoindolin-2-yl)piperidine-2,6-dione], the “Degradation of substrate protein ALK” value (ALK) is reported as “A (0% ≤ substrate protein remaining % ≤ 80%)”, the inhibition at 0.01 µM (MV-4-11; Table I-2, ALK inhibitors) is reported as 40 to 50% and the inhibition at 0.5 µM (MV-4-11; Table I-2, ALK inhibitors) is reported as 60 to 70%. It also gave an inhibition at 0.01 µM (MM.1S) of 10 to 20%, an inhibition at 0.5 µM (MM.1S) of 30 to 40% and an inhibition at 0.01 µM (MCF-7) of 40 to 50%. For the same compound, the inhibition at 0.5 µM (MCF-7) was 60 to 70%, the inhibition at 0.5 µM [1] was 40 to 53% and the inhibition at 2 µM [1] was 60 to 80%.

In the case of COc1cc(N2CCC(N(C)Cc3ccc4c(c3)C(=S)N(C3CCC(=O)NC3=O)C4)CC2)ccc1Nc1ncc(Cl)c(Nc2ccccc2P(C)(C)=O)n1 (stereo not shown) [GT-08680, 3-(6-(((1-(4-((5-chloro-4-((2-(dimethylphosphoryl)phenyl)amino)pyrimidin-2-yl)amino)-3-methoxyphenyl)piperidin-4-yl)(methyl)amino)methyl)-1-thioxoisoindolin-2-yl)piperidine-2,6-dione], the “Degradation of substrate protein ALK” value (ALK) is reported as “A (0% ≤ substrate protein remaining % ≤ 80%)”, the inhibition at 0.01 µM (MV-4-11; Table I-2, ALK inhibitors) is reported as 10 to 20% and the inhibition at 0.5 µM (MV-4-11; Table I-2, ALK inhibitors) is reported as 60 to 70%. It also gave an inhibition at 0.01 µM (MM.1S) of 0 to 10%, an inhibition at 0.5 µM (MM.1S) of 50 to 60% and an inhibition at 0.5 µM [1] of 60 to 80%. It also gave an inhibition at 2 µM [1] of 80 to 100%.

For CS(=O)(=O)c1cccc(CNc2nc(Nc3ccc(N4CCN(Cc5cccc6c5CN(C5CCC(=O)NC5=O)C6=S)CC4)cc3)ncc2C(F)(F)F)c1 (stereo not shown) [GT-08784, 3-(4-((4-(4-((4-((3-(methylsulfonyl)benzyl)amino)-5-(trifluoromethyl)pyrimidin-2-yl)amino)phenyl)piperazin-1-yl)methyl)-1-thioxoisoindolin-2-yl)piperidine-2,6-dione], the “Degradation of substrate protein FAK” value (FAK) was “A (0% ≤ substrate protein remaining % ≤ 80%)”, the inhibition at 0.5 µM [1] was 53 to 60% and the inhibition at 2 µM [1] was 80 to 100%.

With Cc1cc(Nc2ncc(Cl)c(Nc3ccccc3S(=O)(=O)C(C)C)n2)c(OC(C)C)cc1C1CCN(Cc2ccc3c(c2)C(=S)N(C2CCC(=O)NC2=O)C3)CC1 (stereo not shown) [GT-08678, 3-(6-((4-(4-((5-chloro-4-((2-(isopropylsulfonyl)pheny 1)amino)pyrimidin-2-yl)amino)-5-isopropoxy-2-methylphenyl)piperidin-1-yl)methyl)-1-thioxoisoindolin-2-yl)piperidine-2,6-dione] the “Degradation of substrate protein ALK” value (ALK) was “A (0% ≤ substrate protein remaining % ≤ 80%)”, the inhibition at 0.01 µM (MM.1S) was 0 to 10% and the inhibition at 0.5 µM (MM.1S) was 50 to 60%. For the same compound, the inhibition at 0.01 µM (MCF-7) was -20 to -10%, the inhibition at 0.5 µM (MCF-7) was 40 to 50% and the inhibition at 0.5 µM [1] was 40 to 53%. The inhibition at 2 µM [1] was 60 to 80%.

For CN(c1cccc(CNc2nc(Nc3ccc(N4CCN(Cc5ccc6c(c5)CN(C5CCC(=O)NC5=O)C6=S)CC4)cc3)ncc2C(F)(F)F)c1)S(C)(=O)=O (stereo not shown) [GT-08781, N-(3-(((2-((4-(4-((2-(2,6-dioxopiperidin-3-yl)-1-thioxoisoindolin-5-yl)methyl)piperazin-1-yl)phenyl)amino)-5-(trifluoromethyl)pyrimidin-4-yl)amino)methyl)phenyl) -N-methylmethanesulfonamide], the “Degradation of substrate protein FAK” value (FAK) was “A (0% ≤ substrate protein remaining % ≤ 80%)”, the inhibition at 0.01 µM (MV-4-11; Table I-12, FAK inhibitors) was 5 to 10% and the inhibition at 0.5 µM (MV-4-11; Table I-12, FAK inhibitors) was 60 to 70%. It also gave an inhibition at 0.5 µM [1] of 53 to 60% and an inhibition at 2 µM [1] of 60 to 80%.

With CNC(=O)c1ccccc1Nc1cc(Nc2cc(C)c(C3CCN(Cc4ccc5c(c4)CN(C4CCC(=O)NC4=O)C5=S)CC3)cc2OC(C)C)ncc1C(F)(F)F (stereo not shown) [GT-08782, 2-((2-((4-(1-((2-(2,6-dioxopiperidin-3-yl)-1-thioxoisoindolin-5-yl)methyl)piperidin-4-yl)-2-isopropoxy-5-methylphenyl)amino)-5-(trifluoromethyl)pyridin-4-yl)amino)-N-methylbenzamide] the “Degradation of substrate protein FAK” value (FAK) was “A (0% ≤ substrate protein remaining % ≤ 80%)”.

C#Cc1cccc(Nc2ncnc3cc(OCCOC)c(OCCOC)cc23)c1 [erlotinib, Erlotinib, reference compound] gave an inhibition at 0.01 µM (MV-4-11; Table I-3, EGFR inhibitors) of 0 to 5%, an inhibition at 0.5 µM (MV-4-11; Table I-3, EGFR inhibitors) of 10 to 20% and an inhibition at 0.01 µM (SW620; SW-620, 10 nM, read-out: Inhibition Rate at 10 nM (%)) of 10 to 20%. For the same compound, the inhibition at 0.5 µM (SW620; SW-620, 500 nM, read-out: Inhibition Rate at 500 nM (%)) was 10 to 20%, the inhibition at 0.01 µM (H1975; NCI-H1975, 10 nM, read-out: Inhibition Rate at 10 nM (%)) was 0 to 5% and the inhibition at 0.5 µM (H1975; NCI-H1975, 500 nM, read-out: Inhibition Rate at 500 nM (%)) was 0 to 5%. The inhibition at 0.01 µM (RPMI-8226; 10 nM, read-out: Inhibition Rate at 10 nM (%)) was 20 to 30% and the inhibition at 0.5 µM (RPMI-8226; 500 nM, read-out: Inhibition Rate at 500 nM (%)) was 20 to 30%.

COc1cc(N2CCN(Cc3ccc4c(c3)C(=S)N(C3CCC(=O)NC3=O)C4)CC2)ccc1Nc1ncc(Cl)c(Nc2ccccc2P(C)(C)=O)n1 (stereo not shown) [GT-08679, 3-(6-((4-(4-((5-chloro-4-((2-(dimethylphosphoryl)phenyl)amino)pyrimidin-2-yl)amino)-3-methoxyphenyl)piperazin-1-yl)methyl)-1-thioxoisoindolin-2-yl)piperidine-2,6-dione] was tested, and the “Degradation of substrate protein ALK” value (ALK) was “A (0% ≤ substrate protein remaining % ≤ 80%)”, the inhibition at 0.01 µM (MV-4-11; Table I-2, ALK inhibitors) was 50 to 60% and the inhibition at 0.5 µM (MV-4-11; Table I-2, ALK inhibitors) was 80 to 100%. It also gave an inhibition at 0.01 µM (MM.1S) of 10 to 20%, an inhibition at 0.5 µM (MM.1S) of 20 to 30% and an inhibition at 0.01 µM (MCF-7) of 20 to 30%. For the same compound, the inhibition at 0.5 µM (MCF-7) was 40 to 50%, the inhibition at 0.5 µM [1] was 60 to 80% and the inhibition at 2 µM [1] was 80 to 100%.

With COc1cc(N2CCN(Cc3ccc4c(c3)CN(C3CCC(=O)NC3=O)C4=S)CC2)ccc1Nc1ncc(Cl)c(Nc2ccccc2P(C)(C)=O)n1 (stereo not shown) [GT-08675, 3-(5-((4-(4-((5-chloro-4-((2-(dimethylphosphoryl)phenyl)amino)pyrimidin-2-yl)amino)-3-methoxyphenyl)piperazin-1-yl)methyl)-1-thioxoisoindolin-2-yl)piperidine-2,6-dione] the “Degradation of substrate protein ALK” value (ALK) was “A (0% ≤ substrate protein remaining % ≤ 80%)”, the inhibition at 0.01 µM (MV-4-11; Table I-2, ALK inhibitors) was 10 to 20% and the inhibition at 0.5 µM (MV-4-11; Table I-2, ALK inhibitors) was 70 to 80%. The inhibition at 0.01 µM (MM.1S) was 10 to 20%, the inhibition at 0.5 µM (MM.1S) was 30 to 40% and the inhibition at 0.01 µM (MCF-7) was 20 to 30%. The inhibition at 0.5 µM (MCF-7) was 40 to 50%, the inhibition at 0.5 µM [1] was 80 to 100% and the inhibition at 2 µM [1] was 80 to 100%.
